Measured values: patent US11319283B2, “Substituted cyclobutylbenzene compounds as indoleamine 2,3-dioxygenase (IDO) inhibitors” (MERCK SHARP & DOHME CORP., priority 2017, dated 2022)

How the values were obtained:
IDO1 = IDO1 (Homo sapiens, UniProt P14902); test: IDO1 Cellular Assay in Hela Cells Stimulated with IFNγ; assay type: cell-based; parameters: endogenous in cells; host or cells: HeLa cells stimulated with IFNγ (100 ng/mL); conditions: Hela cells stimulated with IFNγ 100 ng/mL, 300 uM L-tryptophan, about 48 hours, fluorescence readout
IDO1, sequence (P14902 whole entry): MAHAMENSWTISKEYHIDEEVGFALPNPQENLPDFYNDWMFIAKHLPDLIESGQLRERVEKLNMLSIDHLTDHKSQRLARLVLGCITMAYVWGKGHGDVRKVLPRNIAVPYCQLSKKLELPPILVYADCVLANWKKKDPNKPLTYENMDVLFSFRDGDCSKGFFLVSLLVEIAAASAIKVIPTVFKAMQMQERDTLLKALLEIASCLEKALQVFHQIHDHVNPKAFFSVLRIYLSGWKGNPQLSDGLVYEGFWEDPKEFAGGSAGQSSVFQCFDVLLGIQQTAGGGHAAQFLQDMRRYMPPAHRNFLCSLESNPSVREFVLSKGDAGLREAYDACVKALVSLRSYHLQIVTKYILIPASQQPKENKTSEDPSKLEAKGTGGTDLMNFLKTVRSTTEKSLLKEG
Experimental: IDO1 Cellular Assay in Hela Cells Stimulated with IFNγ
Hela cells were cultured in complete Hela culture medium (90% EMEM, 10% heat-inactivated fetal bovine serum) and expanded to about 1×10^9 cells. The cells were then collected and frozen down at 1×10^7 cells/vial in 1 mL frozen medium (90% complete Hela culture medium, 10% DMSO)
Compounds to be tested were serially diluted in ten 3-fold steps in DMSO starting from 10 mM DMSO stocks in Echo low volume plate(s).
Frozen Hela cells were thawed and transferred into Hela assay medium (99% complete Hela culture medium, 1% Pen/Strep) with 20 mL medium/vial of cells. The cells were spun down at 250 g in a table top centrifuge for 5 min and suspended in same volume of Hela assay medium. The cells were then counted and adjusted to a density of 2×10^5 cells/ml in Hela assay medium. Sterile L-tryptophan were added to the cells with final concentration of 300 uM L-tryptophan. A small aliquot (2 mL/plate) of Hela cells were set aside and were not treated with IFNγ, to serve as the Max-E control.
Hela cells with and without IFNγ were dispensed to the respective wells of 384-well assay plates containing the compounds. The plates were incubated for about 48 hours at a 37° C., 5% CO2 incubator. Afterwards, […] of 0.5 M methyl isonipecotate in dimethyl sulfoxide were added into each well and the plates were sealed and incubated at 37° C. without CO2 overnight. The plates were centrifuged for 1 min at 200×g. The resulting fluorescence was measured in a Spectramax plate reader (Molecular Devices) with a 400 nm excitation filter and a 510 nm emission filter.
Potencies were calculated by linear least squares fit to the four parameter logistic IC50 equation.

TDO = molecular target: T1, TDO (Homo sapiens, UniProt P48775); test: TDO Cellular Assay in Frozen SW48 Cells; assay type: cell-based; conditions: 300 uM L-tryptophan, about 48 hours, fluorescence readout
T1 construct: endogenous in cells; host or cells: SW48 cells (A2780 cells as control with minimal TDO activity)
T1 sequence (P48775 whole entry): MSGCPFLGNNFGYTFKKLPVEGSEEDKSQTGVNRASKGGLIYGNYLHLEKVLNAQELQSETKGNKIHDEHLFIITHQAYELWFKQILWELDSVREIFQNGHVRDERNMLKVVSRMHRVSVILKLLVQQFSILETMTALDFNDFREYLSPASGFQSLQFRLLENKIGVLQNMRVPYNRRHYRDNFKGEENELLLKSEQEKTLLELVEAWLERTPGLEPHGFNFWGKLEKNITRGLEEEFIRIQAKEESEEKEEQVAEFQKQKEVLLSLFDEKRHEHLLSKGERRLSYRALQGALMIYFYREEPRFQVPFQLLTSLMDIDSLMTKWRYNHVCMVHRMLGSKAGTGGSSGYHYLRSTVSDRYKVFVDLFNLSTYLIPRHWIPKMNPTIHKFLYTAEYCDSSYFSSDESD
Experimental: TDO Cellular Assay in Frozen SW48 Cells
SW48 cells were cultured in complete RPMI culture medium (90% RPMI, 10% heat-inactivated fetal bovine serum).
Compounds to be tested were serially diluted in ten 3-fold steps in DMSO starting from 10 mM DMSO stocks in Echo low volume plate(s). […] The cells were spun down at 350 g in a table top centrifuge for 5 minutes and suspended in same volume of RPMI assay medium. […] Sterile L-tryptophan (Sigma, Cat # T0254) was added to the cells with final concentration of 300 uM.
SW48 and A2780 cells were dispensed to the respective wells of 384-well assay plates containing the compounds. The plates were incubated for about 48 hours at a 37° C., 5% CO2 incubator. Afterwards, 12 μL of 0.5 M ethyl isonipecotate (Sigma Aldrich, Cat # E33505) in dimethyl sulfoxide were added into each well and the plates were sealed and incubated at 37° C. without CO2 overnight. The plates were centrifuged for 1 minute at 200×g. The resulting fluorescence was measured in a Spectramax plate reader (Molecular Devices) with a 400 nm excitation filter and a 510 nm emission filter.
The fluorescence intensity of each well was corrected for the background observed in wells with A2780 cells and was expressed as a fraction of the intensity observed in wells of SW48 cells and DMSO only. Potencies were calculated by linear least squares fit to the four parameter logistic IC50 equation.

| SMILES | IC50 (IDO1) | IC50 (TDO) |
| --- | --- | --- |
| CCOC1CC1NC(=O)C1(c2ccc(NC(=O)c3cccc(Cl)c3)cc2)CC(F)(F)C1 (stereo not drawn) [Example 65] | 71 nM | ≥ 10000 nM |
| CCO[C@H]1C[C@H]1NC(=O)C1(c2ccc(NC(=O)c3cccc(Cl)c3)cc2)CC(F)(F)C1 [Example 66, 3-chloro-N-[4-(1-{[(1R,2S)-2-ethoxycyclopropyl]carbamoyl}-3,3-difluorocyclobutyl)phenyl] benzamide] | 89 nM | ≥ 10000 nM |
| O=C(Nc1ccc(C2(C(=O)NCCC(F)(F)F)CC(F)(F)C2)cc1)c1cccc(Cl)c1 [Example 69, 3-chloro-N-(4-{3,3-difluoro-1-[(3,3,3-trifluoropropyl)carbamoyl]cyclobutyl}phenyl) benzamide] | 56 nM | ≥ 10000 nM |
| N#Cc1cccc(C(=O)Nc2ccc(C3(C(=O)Nc4ccc(F)cc4)CC(F)(F)C3)cc2)c1 [Example 73, 3-cyano-N-(4-{3,3-difluoro-1-[(4-fluorophenyl)carbamoyl]cyclobutyl}phenyl) benzamide] | 4 nM | ≥ 10000 nM |
| CCCNC(=O)C1(c2ccc(NC(=O)c3ccc(F)c(Cl)c3)cc2)CCC1 [Example 78, 3-chloro-4-fluoro-N-{4-[1-(propylcarbamoyI)cyclobutyl]phenyl}benzamide] | 10 nM | ≥ 10000 nM |
| CCCNC(=O)C1(c2ccc(NC(=O)c3ccc(Cl)c(Cl)c3)cc2)CCC1 [Example 81, 3,4-dichloro-N-{4-[1-(propylcarbamoyl)cyclobutyl]phenyl}benzamide] | 13 nM | ≥ 10000 nM |
| O=C(Nc1ccc(C2(C(=O)NCCC(F)(F)F)CCC2)cc1F)c1cccc(Cl)c1 [Example 82, 3-Chloro-N-(2-fluoro-4-(1-((3,3,3-trifluoropropyl)carbamoyl)cyclobutyl)phenyl)benzamide] | 117 nM | ≥ 10000 nM |
| O=C(Nc1ccc(C2(C(=O)NCCC(F)(F)F)CCC2)cc1CO)c1cccc(Cl)c1 [Example 83, 3-Chloro-N-(2-(hydroxymethyl)-4-(1-((3,3,3-trifluoropropyl)carbamoyl)cyclobutyl)phenyl)benzamide] | 128 nM | ≥ 10000 nM |
| CCCNC(=O)C1(c2ccc(NC(=O)C3Cc4ccccc43)cc2)CCC1 (stereo not drawn) [Example 87, N-{4-[1-(propylcarbamoyl)cyclobutyl]phenyl}bicyclo[4.2.0]octa-1,3,5-triene-7-carboxamide] | 1050 nM | ≥ 10000 nM |

Further compounds by falling IC50 (IDO1), results first:

| IC50 (IDO1) | IC50 (TDO) | SMILES |
| --- | --- | --- |
| 1810 nM | ≥ 10000 nM | O=C(NC1CCC(F)(F)CC1)c1ccc(C2(C(=O)Nc3ccc(F)cn3)CCC2)cc1 [Example 61, N-(4,4-difluorocyclohexyl)-4-{1-[(5-fluoropyridin-2-yl)carbamoyl]cyclobutyl} benzamide] |
| 1440 nM | ≥ 10000 nM | CCO[C@@H]1C[C@H]1NC(=O)C1(c2ccc(NC(=O)c3cccc(Cl)c3)cc2)CC(F)(F)C1 [Example 68, 3-chloro-N-[4-(1-{[(1R,2R)-2-ethoxycyclopropyl]carbamoyl}-3,3-difluorocyclobutyl)phenyl] benzamide] |
| 489 nM | ≥ 10000 nM | O=C(NC1CCCCC1)c1ccc(C2(C(=O)Nc3ccc(F)cn3)CCC2)cc1 [Example 60, N-cyclohexyl-4-{1-[(5-fluoropyridin-2-yl)carbamoyl]cyclobutyl} benzamide] |
| 207 nM | ≥ 10000 nM | CCO[C@H]1C[C@@H]1NC(=O)C1(c2ccc(NC(=O)c3cccc(Cl)c3)cc2)CC(F)(F)C1 [Example 67, 3-chloro-N-[4-(1-{[(lS,2S)-2-ethoxycyclopropyl]carbamoyl}-3,3-difluorocyclobutyl)phenyl] benzamide] |
| 176 nM | ≥ 10000 nM | CC(C)(C)/N=C/c1cc(C2(C(=O)NCCC(F)(F)F)CCC2)ccc1NC(=O)c1cccc(Cl)c1 [Example 84, N-(2-[(E)-(tert-butylimino)melhyl]-4-{1-[(3,3,3-trifluoropropyl)carbamoyl]cyclobutyl}phenyl)-3-chlorobenzamide] |
| 37 nM | ≥ 10000 nM | CCO[C@@H]1C[C@@H]1NC(=O)C1(c2ccc(NC(=O)c3cccc(Cl)c3)cc2)CC(F)(F)C1 [Example 64, 3-chloro-N-[4-(1-{[(1S,2R)-2-ethoxycyclopropyl]carbamoyl}-3,3-difluorocyclobutyl)phenyl] benzamide] |
| 20 nM | 7640 nM | O=C(Nc1ccc(C2(C(=O)Nc3ccc(F)cc3)CC(F)(F)C2)cc1)c1ccnc(C(F)(F)F)c1 [Example 76, N-(4-{3,3-difluoro-1-[(4-fluorophenyl)carbamoyl]cyclobutyl}phenyl)-2-(trifluoromethyl) pyridine-4-carboxamide] |
| 12 nM | ≥ 10000 nM | CCCNC(=O)C1(c2ccc(NC(=O)c3cc(Cl)cc(Cl)c3)cc2)CCC1 [Example 80, 3,5-dichloro-N-{4-[1-(propylcarbamoyl)cyclobutyl]phenyl}benzamide] |
| 11 nM | ≥ 10000 nM | CCCNC(=O)C1(c2ccc(NC(=O)c3cc(F)cc(Cl)c3)cc2)CCC1 [Example 79, 3-chloro-5-fluoro-N-{4-[1-(propylcarbamoyl)cyclobutyl]phenyl}benzamide] |
| 10 nM | ≥ 10000 nM | O=C(Nc1ccc(C2(C(=O)Nc3ccc(F)cc3)CC(F)(F)C2)cc1)c1cncc(Cl)c1 [Example 75, 5-chloro-N-(4-{3,3-difluoro-1-[(4-fluorophenyl)carbamoyl]cyclobutyl}phenyl) pyridine-3-carboxamide] |
| 5 nM | ≥ 10000 nM | O=C(Nc1ccc(C2(C(=O)Nc3ccc(F)cc3)CC(F)(F)C2)cc1)c1cc(Cl)ccn1 [Example 74, 4-chloro-N-(4-{3,3-difluoro-1-[(4-fluorophenyl)carbamoyl]cyclobutyl}phenyl) pyridine-2-carboxamide] |
| 4 nM | ≥ 10000 nM | O=C(Nc1ccc(C2(C(=O)Nc3ccc(F)cc3)CC(F)(F)C2)cc1)c1cccc(F)c1 [Example 72, N-(4-(3,3-Difluoro-1-((4-fluorophenyl)carbamoyl)cyclobutyl)phenyl)-3-fluorobenzamide] |
